{"source": "patent US20020031509A1", "about": "“Pharmaceutical composition and method for its manufacture” (priority 1999, published 2002)", "tested_on": "P. aeruginosa", "experiment": "Experiment 2 screening for antibiotic effect, P. aeruginosa", "assay_type": "cell-based, Pseudomonas aeruginosa", "details": "24 h post inoculation", "procedure": "The second experiment consisted of a screening for antibiotic effect of individual and combined substances. The materials that were used were:\nThe method involved the use of a microtiter (ELISA) plate (12×8 wells, i.e 96 wells in total, obtained from NUNC) with serial dilutions of venoms and bacteria at two concentrations.\nThe incubation time was 24 hours. OD was monitored at 650 nm every hour the first 7-8 hours, and then at 20 hours and 24 hours post inoculation. Each well was given 200 μl of diluted venom plus bacteria.\nThree-dimensional diagrams shown as FIG. 3 to 11 summarize the above results. Observe that in each diagram serge 1 (Z axis) is substance BF, serie 2 is NK, 3 is OH, 4 is BA, 5 is TA, 6 is OH+BA, 7 is OH+TA and serie 8 is reference antibiotic. On the X-axis 1-5 is concentration of substance: 500, 250, 125, 62.5 och 31.2 mikrog/ml for substances (N.B. OH+BA and OH+TA have the double concentrations, i.e. the concentration is 1000, 500, 250, 125 and 62.5 ), and 100, 50, 25, 12.5, 6.25 mikrog/ml for reference antibiotic. The name on the diagrams is the tested bacteria strain (initials only given) and time is 7 hours after incubation start at which the substance was added. The combined OH+BA and OH+TA were obtained by mixing the single venoms in the same proportions.", "data": [{"smiles": "NC[C@H]1O[C@H](O[C@H]2[C@H](O)[C@@H](O[C@H]3O[C@H](CO)[C@@H](O)[C@H](N)[C@H]3O)[C@H](N)C[C@@H]2N)[C@H](O)[C@@H](O)[C@@H]1O", "note": "[Kanamycin]", "values": [{"measurement": "antibacterial effect", "value": "no effect"}]}]}
